Broadly, the EC50 is the concentration needed to bring the measured effect to its halfway point. A word on the IC50: it is the concentration needed to halve the response being measured.

Series [1] relates to SKOV3. In words: Ovarian cancer cell drug susceptibility (Alamar blue), SKOV3. The series is classed as cell-based, human. The note with it: 44 h + 4 h Alamar blue.
Series [2] concerns OVCAR-4. In words: Ovarian cancer cell drug susceptibility (Alamar blue), OVCAR-4. In kind it is cell-based, human. The conditions noted are these: 44 h + 4 h Alamar blue. A general note: Resazurin is reduced to fluorescent resorufin, in cell work by metabolically active cells.
Series [3] has as its system A2780CW (Cisplatin sensitive). Briefly: Ovarian cancer cell drug susceptibility (Alamar blue), A2780CW. The series is classed as cell-based, human. The conditions noted are these: 44 h + 4 h Alamar blue.
Series [4] concerns A2780CP20 (Cisplatin resistant). Briefly: Ovarian cancer cell drug susceptibility (Alamar blue), A2780CP20. In kind it is cell-based, human. The conditions noted are these: 44 h + 4 h Alamar blue.
Series [5] concerns MsTuWT cells (Ptp4a3 wildtype). Briefly: Cell adhesion assay (xCELLigence), MsTuWT. The conditions noted are these: xCELLigence Cell Index. The series is classed as cell-based, mouse.
Series [6] can be described thus: Spontaneous conversion of 5 to 6 under assay conditions. In kind it is physicochemical. The note with it: 90 min, in the presence or absence of DTT.
Series [7] deals with LARD1 (Homo sapiens (Human), UniProt P10586). The conditions noted are these: DiFMUP as a substrate; reported by Hoeger et al.; cited from earlier work.
LARD1, sequence (P10586 1352-1607): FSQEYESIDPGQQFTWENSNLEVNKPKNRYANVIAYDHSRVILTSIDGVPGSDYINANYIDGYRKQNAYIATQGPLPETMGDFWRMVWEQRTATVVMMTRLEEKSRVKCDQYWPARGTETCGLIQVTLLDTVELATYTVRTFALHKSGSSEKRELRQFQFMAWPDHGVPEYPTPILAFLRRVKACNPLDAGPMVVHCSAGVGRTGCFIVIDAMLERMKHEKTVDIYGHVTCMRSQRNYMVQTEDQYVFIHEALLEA
Series [8] concerns the target PTP1B (Homo sapiens (Human), UniProt P18031). The conditions noted are these: DiFMUP as a substrate; reported by Hoeger et al.; cited from earlier work.
For series [9], the target named is PTPaD1 (Homo sapiens (Human), UniProt P18433). The conditions noted are these: DiFMUP as a substrate; reported by Hoeger et al.; cited from earlier work.
PTPaD1, sequence (P18433 241-501): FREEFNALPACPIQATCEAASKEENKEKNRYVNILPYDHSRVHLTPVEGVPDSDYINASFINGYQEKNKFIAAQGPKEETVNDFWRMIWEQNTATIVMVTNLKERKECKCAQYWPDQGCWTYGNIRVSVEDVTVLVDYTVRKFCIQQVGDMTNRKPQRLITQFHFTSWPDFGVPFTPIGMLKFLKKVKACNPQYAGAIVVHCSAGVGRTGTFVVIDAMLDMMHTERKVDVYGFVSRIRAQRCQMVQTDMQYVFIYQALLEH
For series [10], the target named is PTPeD1 (Homo sapiens (Human), UniProt P23469). The note with it: DiFMUP as a substrate; reported by Hoeger et al.; cited from earlier work.
PTPeD1, sequence (P23469 135-394): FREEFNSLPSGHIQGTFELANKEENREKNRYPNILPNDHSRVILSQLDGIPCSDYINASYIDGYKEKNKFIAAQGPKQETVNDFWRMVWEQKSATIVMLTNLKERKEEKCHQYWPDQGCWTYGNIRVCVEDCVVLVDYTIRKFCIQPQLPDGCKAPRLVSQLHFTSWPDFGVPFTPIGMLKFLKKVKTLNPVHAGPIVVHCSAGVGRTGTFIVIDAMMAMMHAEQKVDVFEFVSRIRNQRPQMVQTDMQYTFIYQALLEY
Series [11] has as its target PTPb cat (Homo sapiens (Human), UniProt P23467). The note with it: DiFMUP as a substrate; reported by Hoeger et al.; cited from earlier work.
Series [12] deals with SHP2 cat (Homo sapiens (Human), UniProt Q06124). The conditions noted are these: DiFMUP as a substrate; reported by Hoeger et al.; cited from earlier work.
SHP2 cat, sequence (Q06124 247-517): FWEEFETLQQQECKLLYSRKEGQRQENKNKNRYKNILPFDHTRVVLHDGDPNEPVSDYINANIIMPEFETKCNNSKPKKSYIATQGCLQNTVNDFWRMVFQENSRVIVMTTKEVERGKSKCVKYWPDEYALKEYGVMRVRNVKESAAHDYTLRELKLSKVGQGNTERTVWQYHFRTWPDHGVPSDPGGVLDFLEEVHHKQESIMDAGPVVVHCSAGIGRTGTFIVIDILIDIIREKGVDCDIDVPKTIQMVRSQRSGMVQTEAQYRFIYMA
Series [13] has as its target HCP cat (Homo sapiens (Human), UniProt P29350). The note with it: DiFMUP as a substrate; reported by Hoeger et al.; cited from earlier work.
For series [14], the target named is PTPgD1 (Homo sapiens (Human), UniProt P23470). The conditions noted are these: DiFMUP as a substrate; reported by Hoeger et al.; cited from earlier work.
PTPgD1, sequence (P23470 848-1119): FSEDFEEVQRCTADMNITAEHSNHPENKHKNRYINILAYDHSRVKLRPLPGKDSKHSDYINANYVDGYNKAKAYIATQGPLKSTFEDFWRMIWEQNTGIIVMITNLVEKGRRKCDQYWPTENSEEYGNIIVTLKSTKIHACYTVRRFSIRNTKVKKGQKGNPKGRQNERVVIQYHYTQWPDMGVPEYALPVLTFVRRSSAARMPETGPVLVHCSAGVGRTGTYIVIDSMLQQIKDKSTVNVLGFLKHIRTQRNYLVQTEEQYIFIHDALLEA
The target in series [15] is CD45 (Homo sapiens (Human), UniProt P08575). The note with it: DiFMUP as a substrate; reported by Hoeger et al.; cited from earlier work.
CD45, sequence (P08575 26-1306, species assumed): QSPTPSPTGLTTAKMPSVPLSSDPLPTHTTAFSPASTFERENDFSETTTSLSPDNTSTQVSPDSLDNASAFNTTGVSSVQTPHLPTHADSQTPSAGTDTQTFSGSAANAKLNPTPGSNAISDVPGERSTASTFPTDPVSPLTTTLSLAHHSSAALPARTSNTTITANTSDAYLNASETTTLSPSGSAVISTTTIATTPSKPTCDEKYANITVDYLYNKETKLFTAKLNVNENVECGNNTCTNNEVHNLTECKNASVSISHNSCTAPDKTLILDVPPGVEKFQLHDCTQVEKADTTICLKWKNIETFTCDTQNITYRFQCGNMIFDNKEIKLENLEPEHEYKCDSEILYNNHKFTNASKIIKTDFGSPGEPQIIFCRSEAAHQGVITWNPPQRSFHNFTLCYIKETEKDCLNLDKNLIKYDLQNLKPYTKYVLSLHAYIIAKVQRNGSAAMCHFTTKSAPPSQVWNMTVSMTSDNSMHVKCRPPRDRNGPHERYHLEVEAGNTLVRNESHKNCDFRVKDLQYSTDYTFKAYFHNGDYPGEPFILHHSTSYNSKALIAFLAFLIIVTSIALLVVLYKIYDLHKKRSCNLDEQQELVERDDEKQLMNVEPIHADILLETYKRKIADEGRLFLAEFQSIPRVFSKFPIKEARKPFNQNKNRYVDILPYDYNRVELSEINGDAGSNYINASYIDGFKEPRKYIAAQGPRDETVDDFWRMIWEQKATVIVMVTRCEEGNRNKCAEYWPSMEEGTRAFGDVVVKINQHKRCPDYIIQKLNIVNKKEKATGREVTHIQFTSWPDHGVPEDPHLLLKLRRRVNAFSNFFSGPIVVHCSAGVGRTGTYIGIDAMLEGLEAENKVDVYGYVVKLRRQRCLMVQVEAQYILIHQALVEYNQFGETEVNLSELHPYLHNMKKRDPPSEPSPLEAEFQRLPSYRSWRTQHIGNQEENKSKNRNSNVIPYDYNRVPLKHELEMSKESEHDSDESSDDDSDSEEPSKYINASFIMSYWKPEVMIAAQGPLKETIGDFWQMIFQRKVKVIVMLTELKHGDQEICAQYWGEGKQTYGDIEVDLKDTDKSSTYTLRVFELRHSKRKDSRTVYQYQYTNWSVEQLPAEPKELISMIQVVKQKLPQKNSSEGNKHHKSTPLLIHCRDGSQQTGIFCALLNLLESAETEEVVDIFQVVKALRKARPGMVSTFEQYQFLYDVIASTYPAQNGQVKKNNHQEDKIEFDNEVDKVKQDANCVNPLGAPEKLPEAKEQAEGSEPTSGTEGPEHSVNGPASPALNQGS
Series [16] deals with PTP-Tcell (Homo sapiens (Human), UniProt P17706). The conditions noted are these: DiFMUP as a substrate; reported by Hoeger et al.; cited from earlier work.
PTP-Tcell, sequence (P17706 whole entry): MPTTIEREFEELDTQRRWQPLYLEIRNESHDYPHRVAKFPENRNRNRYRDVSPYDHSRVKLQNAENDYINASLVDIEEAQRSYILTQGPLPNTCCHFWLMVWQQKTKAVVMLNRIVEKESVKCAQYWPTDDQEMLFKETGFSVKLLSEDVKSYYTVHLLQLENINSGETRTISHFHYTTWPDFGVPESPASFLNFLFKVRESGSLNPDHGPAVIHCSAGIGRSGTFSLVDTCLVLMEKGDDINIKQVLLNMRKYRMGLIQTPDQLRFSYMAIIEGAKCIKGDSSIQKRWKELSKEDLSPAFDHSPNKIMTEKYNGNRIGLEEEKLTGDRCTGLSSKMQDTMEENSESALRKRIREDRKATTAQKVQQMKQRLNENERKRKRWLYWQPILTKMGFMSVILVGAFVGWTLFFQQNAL

PTPb cat, sequence (P23467 1703-1963): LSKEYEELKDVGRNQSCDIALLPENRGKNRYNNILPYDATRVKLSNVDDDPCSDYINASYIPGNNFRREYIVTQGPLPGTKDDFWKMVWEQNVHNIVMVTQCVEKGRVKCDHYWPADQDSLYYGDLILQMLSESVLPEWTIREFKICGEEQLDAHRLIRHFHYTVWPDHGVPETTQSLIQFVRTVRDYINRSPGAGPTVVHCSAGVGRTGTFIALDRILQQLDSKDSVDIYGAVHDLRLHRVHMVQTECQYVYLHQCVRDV
HCP cat, sequence (P29350 244-515): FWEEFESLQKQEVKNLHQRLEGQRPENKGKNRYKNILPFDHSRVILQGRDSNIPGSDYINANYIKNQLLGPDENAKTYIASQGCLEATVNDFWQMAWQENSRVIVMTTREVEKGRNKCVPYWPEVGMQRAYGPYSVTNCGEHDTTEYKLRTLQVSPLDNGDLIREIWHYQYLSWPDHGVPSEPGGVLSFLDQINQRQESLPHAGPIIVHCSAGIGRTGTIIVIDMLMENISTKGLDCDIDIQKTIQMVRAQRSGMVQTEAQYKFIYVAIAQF
PTP1B, sequence (P18031 whole entry, species assumed): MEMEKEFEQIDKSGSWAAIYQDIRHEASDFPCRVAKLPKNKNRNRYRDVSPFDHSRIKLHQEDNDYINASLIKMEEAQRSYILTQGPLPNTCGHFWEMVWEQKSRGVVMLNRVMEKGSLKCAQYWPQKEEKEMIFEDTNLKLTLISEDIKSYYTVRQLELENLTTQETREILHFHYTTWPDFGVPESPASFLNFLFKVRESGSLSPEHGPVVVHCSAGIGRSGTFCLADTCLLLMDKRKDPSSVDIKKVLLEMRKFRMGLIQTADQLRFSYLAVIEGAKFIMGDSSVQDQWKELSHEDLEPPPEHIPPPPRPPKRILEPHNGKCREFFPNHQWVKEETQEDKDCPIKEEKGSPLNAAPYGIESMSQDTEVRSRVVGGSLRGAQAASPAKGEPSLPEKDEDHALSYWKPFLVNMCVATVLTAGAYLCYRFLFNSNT

Consider `N.N.[Cl][Pt][Cl]` [Cisplatin], for which the EC50 is above 100 µM in series [1], 30.3 ± 4.4 µM in [2], 3.7 ± 1.8 µM in series [3] and above 100 µM in series [4].
`O=C1NC(=S)S/C1=C/c1cc(Br)ccc1OCc1ccccc1Br` [BR-1]: the EC50 in series [1] (Homo sapiens, SK-OV-3) turned out to be 48.3 ± 9.1 µM; in series [2] (Homo sapiens, OVCAR-4) it was 48.5 ± 7.9 µM; in series [3] (Homo sapiens) it was 26.4 ± 1 µM; in series [4] (Homo sapiens), 17.3 ± 2 µM.
The matching figures for `O=c1[nH]c(=O)c2cc(-c3ccccc3)sc2[nH]1` [JMS-557-038]: above 50 µM, above 50 µM, above 50 µM and above 50 µM.
For `Nc1c[nH]c(=O)c2cc(-c3ccccc3)sc12` [Thienopyridone (5), 7-amino-2-phenylthieno[3,2-c]pyridin-4(5H)-one], the EC50 in series [1] (Homo sapiens, SK-OV-3) was 28.8 ± 2.2 µM; in series [2] (Homo sapiens, OVCAR-4) it was 15.5 ± 2.4 µM; in series [3] (Homo sapiens) it was 4.5 ± 0.6 µM; in series [4] (Homo sapiens), 13.1 ± 6 µM. Moreover, in [5], the MsTuWT adherence entry is reported as “inhibited”. In addition, in series [6], the “spontaneous conversion of 5 to 6” value is “not detect quantifiable (>5%) spontaneous conversion”. For the same compound, the IC50 in series [7] was above 100 µM; in [8], above 100 µM; in [9] it was above 100 µM; in [10] it was above 100 µM; in series [11] it was 67 µM; in [12], above 100 µM. The IC50 in [13] was 71 µM; in series [14] it was above 100 µM; in series [15], above 100 µM; in series [16], above 100 µM.
